Results reported in BigSolDB 2.1.

C=CC(=O)Nc1cc(F)c(Br)c(F)c1
Settings	solubility (mole fraction)
in acetonitrile, 284.65 K	0.006
in acetonitrile, 291.45 K	0.0079
in acetonitrile, 294.75 K	0.009
in acetonitrile, 298.25 K	0.0104
in acetonitrile, 301.85 K	0.0121
in acetonitrile, 305.35 K	0.0139
in acetonitrile, 308.45 K	0.0158
in acetonitrile, 312.75 K	0.0186
in acetonitrile, 316.65 K	0.0217
in acetonitrile, 320.05 K	0.0248
in acetonitrile, 323.85 K	0.0288
in acetonitrile, 327.65 K	0.0332
in acetonitrile, 331.75 K	0.0386
in acetonitrile, 334.15 K	0.0423
in acetonitrile, 337.75 K	0.0482
in acetonitrile, 340.45 K	0.0533
in acetonitrile, 343.55 K	0.0596
in acetonitrile, 346.35 K	0.0662
in acetonitrile, 348.95 K	0.0725
in benzene, 296.35 K	0.0007
in benzene, 302.95 K	0.0011
in benzene, 308.75 K	0.0014
in benzene, 310.75 K	0.0015
in benzene, 317.65 K	0.0022
in benzene, 324.25 K	0.003
in benzene, 332.05 K	0.0044
in benzene, 335.95 K	0.0054
in benzene, 340.85 K	0.0067
in benzene, 347.05 K	0.0094
in ethanol, 295.25 K	0.0251
in ethanol, 297.65 K	0.0264
in ethanol, 301.55 K	0.0292
in ethanol, 309.25 K	0.0351
in ethanol, 312.95 K	0.0384
in ethanol, 318.55 K	0.044
in ethanol, 326.45 K	0.0534
in ethanol, 331.35 K	0.0604
in ethanol, 334.85 K	0.0659
in ethanol, 339.55 K	0.074
in ethanol, 344.45 K	0.0838
in ethanol, 347.55 K	0.0905
in methanol, 294.25 K	0.0142
in methanol, 298.65 K	0.0163
in methanol, 303.16 K	0.0189
in methanol, 308.45 K	0.0221
in methanol, 312.35 K	0.0249
in methanol, 318.15 K	0.0298
in methanol, 321.05 K	0.0325
in methanol, 324.65 K	0.036
in methanol, 327.45 K	0.0391
in methanol, 328.95 K	0.041
in pyridine, 288.95 K	0.139
in pyridine, 292.45 K	0.145
in pyridine, 298.95 K	0.157
in pyridine, 303.85 K	0.166
in pyridine, 310.25 K	0.178
in pyridine, 317.05 K	0.193
in pyridine, 322.55 K	0.205
in pyridine, 328.45 K	0.219
in pyridine, 333.15 K	0.23
in pyridine, 338.25 K	0.243
in pyridine, 344.95 K	0.262
in pyridine, 348.85 K	0.273
in toluene, 286.65 K	0.0006
in toluene, 291.95 K	0.0008
in toluene, 292.05 K	0.0008
in toluene, 295.95 K	0.0009
in toluene, 301.75 K	0.0011
in toluene, 301.85 K	0.0012
in toluene, 307.95 K	0.0015
in toluene, 312.05 K	0.0019
in toluene, 316.05 K	0.0022
in toluene, 319.25 K	0.0026
in toluene, 323.75 K	0.003
in toluene, 327.95 K	0.0035
in toluene, 331.15 K	0.0043
in toluene, 334.65 K	0.0051
in toluene, 337.65 K	0.0059
in toluene, 342.35 K	0.0069
